Results as given in patent US7314624B2 (priority 2001, dated 2008).

Tests used:
Assay type in all cases: cell-based
[1] = test system: Influenza virus A/AA/6/60
[2] = test system: S. typhimurium
[3] = test system: S. dysenteriae; conditions: 15 minutes; bacteria alone 910,000 CFU; X8P 1/100 dilution; EDTA 50-25 μM

Compound | inhibition of infectivity of influenza A virus [1] | reduction of influenza A infection of MDCK cells [1] | bacterial count after treatment (CFU) [2] | bacterial count after treatment (CFU) [3]
4-(1,1,3,3-Tetramethylbutyl)phenvl-polyethylene glycol [TRITON X-100] | only partially inhibited | completely ineffective | – | –
O=C(O)CN(CCN(CC(=O)O)CC(=O)O)CC(=O)O [EDTA, ethylenediamine-tetraacetic acid] | – | – | 790,000 CFU | 320,000 CFU
